Measured values reported in ChEMBL document CHEMBL4043238, “Discovery of N-substituted 7-azaindoles as Pan-PIM kinase inhibitors - Lead series identification - Part II” (Bioorg Med Chem Lett, 2017).
Converted amounts (≈) assume the structure as drawn. Each block holds one compound with its values, some of them ahead of it.

Legend:
[1] = target: Serine/threonine-protein kinase pim-2 (Homo sapiens, UniProt Q9P1W9); assay: Inhibition of PIM2 (unknown origin) assessed as reduction in BAD phosphorylation at Ser112 residues by TR-FRET assay
[2] = target: T1, Serine/threonine-protein kinase pim-1 (Homo sapiens, UniProt P11309); assay: Inhibition of PIM1 (unknown origin) assessed as reduction in BAD phosphorylation at Ser112 residues by TR-FRET assay
[3] = target: Serine/threonine-protein kinase pim-3 (Homo sapiens, UniProt Q86V86); assay: Inhibition of PIM3 (unknown origin) assessed as reduction in BAD phosphorylation at Ser112 residues by TR-FRET assay
[4] = target: T1, Serine/threonine-protein kinase pim-1; assay: Inhibition of PIM1 in human KG1 cells assessed as reduction in BAD phosphorylation; assay type: cell-based
Liver [5] = assay: Stability in human liver microsomes; assay type: ADME, microsome
Mus musculus [6] = assay: In vivo inhibition of PIM1 in SCID mouse xenografted with human KG1 cells assessed as reduction in BAD phosphorylation at 25 mg/kg, po administered as single dose measured at 24 hrs relative to control; assay type: functional; settings: KG-1, po
Liver [7] = assay: Stability in mouse liver microsomes; assay type: ADME, microsome
[8] = Protein binding in rat plasma; assay type: ADME, cell-free; settings: read-out: PPB
[9] = Plasma concentration in SCID mouse xenografted with human KG1 cells at 25 mg/kg, po administered as single dose measured at 8 hrs; assay type: ADME, organism-based
Mus musculus [10] = assay: In vivo inhibition of PIM1 in SCID mouse xenografted with human KG1 cells assessed as reduction in BAD phosphorylation at 25 mg/kg, po administered as single dose measured at 8 hrs relative to control; assay type: functional; settings: KG-1, po
[11] = Drug uptake in tumor of SCID mouse xenografted with human KG1 cells at 25 mg/kg, po administered as single dose measured at 8 hrs; assay type: ADME, organism-based, Neoplasm; settings: read-out: Drug uptake
Liver [12] = assay: Stability in rat liver microsomes; assay type: ADME, microsome
KG-1 = assay: Antiproliferative activity against human KG1 cells; assay type: functional, cell-based
[13] = Protein binding in human plasma; assay type: ADME, cell-free; settings: read-out: PPB
[14] = Volume of distribution at steady state in rat at 3 mg/kg, iv administered as single dose; assay type: ADME, organism-based; settings: in vivo, read-out: Vdss
[15] = Drug uptake in tumor of SCID mouse xenografted with human KG1 cells at 25 mg/kg, po administered as single dose measured at 24 hrs; assay type: ADME, organism-based, Neoplasm; settings: read-out: Drug uptake
[16] = Plasma concentration in SCID mouse xenografted with human KG1 cells at 25 mg/kg, po administered as single dose measured at 24 hrs; assay type: ADME, organism-based
[17] = Cmax in rat at 10 mg/kg, po administered as single dose; assay type: ADME, organism-based; design: dose 10 mg/kg, route oral; settings: in vivo
[18] = Protein binding in mouse plasma; assay type: ADME, cell-free; settings: read-out: PPB
[19] = Thermodynamic solubility of the compound at pH 7.4; assay type: physicochemical; settings: buffer, read-out: Therm_solubility
[20] = Clearance in rat at 3 mg/kg, iv administered as single dose; assay type: ADME, organism-based; settings: in vivo
[21] = Half life in rat at 3 mg/kg, iv administered as single dose; assay type: ADME, organism-based; settings: in vivo
[22] = AUC (0 to infinity) in rat at 10 mg/kg, po administered as single dose; assay type: ADME, organism-based; design: dose 10 mg/kg, time infinity, route oral; settings: in vivo
[23] = target: Voltage-gated inwardly rectifying potassium channel KCNH2 (Homo sapiens, UniProt Q12809); assay: Inhibition of human ERG by patch clamp assay
Cytochrome P450 3A4 [24] = target: T2, Cytochrome P450 3A4 (Homo sapiens, UniProt P08684); assay: Inhibition of CYP3A4 (unknown origin) using testosterone as substrate; assay type: ADME
[25] = AUC (0 to infinity) in rat at 3 mg/kg, iv administered as single dose; assay type: ADME, organism-based; design: dose 3 mg/kg, route intravenous, time infinity; settings: in vivo
[26] = Permeability from apical to basolateral side in human Caco2/TC7 cells at 5 uM; assay type: ADME, cell-based; settings: Caco-2, read-out: permeability
Cytochrome P450 3A4 [27] = target: T2, Cytochrome P450 3A4; assay: Inhibition of CYP3A4 (unknown origin) using midazolam as substrate; assay type: ADME
[28] = AUC (0 to infinity) in mouse at 10 mg/kg, po administered as single dose; assay type: ADME, organism-based; design: dose 10 mg/kg, route oral, time infinity; settings: in vivo
[29] = Half life in mouse at 10 mg/kg, po administered as single dose; assay type: ADME, organism-based; settings: in vivo
[30] = Volume of distribution at steady state in mouse at 3 mg/kg, iv administered as single dose; assay type: ADME, organism-based; settings: in vivo, read-out: Vdss
[31] = Half life in mouse at 3 mg/kg, iv administered as single dose; assay type: ADME, organism-based; settings: in vivo
[32] = Cmax in mouse at 3 mg/kg, iv or 10 mg/kg, po administered as single dose; assay type: ADME, organism-based; settings: in vivo
[33] = Clearance in mouse at 3 mg/kg, iv administered as single dose; assay type: ADME, organism-based; settings: in vivo
[34] = Clearance in human liver microsomes assessed as compound extraction at 5 uM; assay type: ADME, microsome; settings: read-out: CLH
Mus musculus [35] = assay: (§1) Oral bioavailability in mouse at 10 mg/kg administered as single dose; assay type: ADME, organism-based; settings: in vivo
[36] = Induction of CYP450 (unknown origin); assay type: ADME; settings: human
[37] = Inhibition of CYP450 (unknown origin); assay type: ADME; settings: human
[38] = as §1; assay type: ADME, organism-based; settings: in vivo
Mus musculus [39] = assay: Clearance in mouse at 3 mg/kg, iv administered as single dose relative to hepatic blood flow; assay type: ADME, organism-based; settings: in vivo

- IC50 [1]: 109 nM
- IC50 [2]: 13 nM
SMILES: NC(=O)c1cc(Cl)c2c(Cl)c(-c3ccccc3)n(C3CCCNC3)c2n1 (centres undefined)

- IC50 [1]: 57 nM
- IC50 [2]: 8 nM
SMILES: COC/C=C/c1c(Cl)c2c(Cl)cc(C(N)=O)nc2n1C1CCCNC1 (centres undefined)

- IC50 [1]: > 30000 nM
- IC50 [2]: 250 nM
SMILES: CN1CCN(c2ccc(-c3cc4c(Cl)cc(C(N)=O)nc4n3C)cc2)CC1

- IC50 [1]: 179 nM
- IC50 [2]: 103 nM
SMILES: NC(=O)c1cc(Cl)c2c(Cl)c(C3=CCOCC3)n(C3CCCNC3)c2n1 (centres undefined)

- IC50 [1]: 7410 nM
- IC50 [3]: 480 nM
- IC50 [2]: 125 nM
SMILES: CCN(CC)CCn1c(I)c(Cl)c2c(Cl)cc(C(N)=O)nc21

- IC50 [3]: 5620 nM
- IC50 [2]: 720 nM
SMILES: NC(=O)c1cc(Cl)c2c(Cl)c(I)n(Cc3ccncc3)c2n1

- IC50 [1]: 6 nM
- IC50 [4]: 43 nM
- Stability (Liver [5]): 1%
- Stability (Liver [7]): 10%
- fraction unbound [8]: 0.01
- concentration at 8 h [9]: 18.9 µM
- concentration at 8 h [11]: 101 µM
- Stability (Liver [12]): 6%
- fraction unbound [13]: 0.01
- Vd [14]: 20.9 L/kg
- concentration at 24 h [15]: 99 µM
- IC50 [2]: 1 nM
- concentration at 24 h [16]: 8.21 µM
- Cmax [17]: 390 ng/mL
- fraction unbound [18]: 0.01
- solubility thermodynamic [19]: 225 µM (≈ 79.5 µg/mL)
- clearance [20]: 18.3 mL/min/kg
- half-life [21]: 13.6 h
- AUC(0-inf) [22]: 7450 ng·h/mL
- IC50 (Cytochrome P450 3A4 [24]): 21000 nM
- AUC(0-inf) [25]: 2620 ng·h/mL
- Papp A→B at 5 µM [26]: 3.8 ×10⁻⁶ cm/s
- IC50 (Cytochrome P450 3A4 [27]): > 30000 nM
SMILES: NC(=O)c1cc(Cl)c2c(Cl)c(C3CC3)n([C@H]3CCCNC3)c2n1
- inhibition in vivo at 25 mg/kg (Mus musculus [6]): 61%
- inhibition in vivo at 25 mg/kg (Mus musculus [10]): 60 to 65%
- IC50 (KG-1): 62 nM
- IC50 [23]: 2900 nM

- IC50 [1]: 15 nM
- IC50 [3]: 3 nM
- IC50 [2]: 1 nM
SMILES: NC(=O)c1cc(Cl)c2c(Cl)c(I)n(C3CCCNCC3)c2n1 (racemic)

- IC50 [1]: 13 nM
- IC50 [4]: 115 nM
- AUC(0-inf) [28]: 13700 ng·h/mL
- half-life [29]: 8.9 h
- Vd [30]: 4.6 L/kg
- half-life [31]: 3.1 h
- Cmax [32]: 292 ng/mL
- IC50 [2]: 1 nM
- clearance [33]: 18.3 mL/min/kg
- solubility thermodynamic [19]: 0.4 µM (≈ 0.141 µg/mL)
- hepatic extraction ratio at 5 µM [34]: 0.02
- F (Mus musculus [35]): 155%
- Papp A→B at 5 µM [26]: 1.9 ×10⁻⁶ cm/s
- Activity [36]: Not Active
- inhibition (INH) [37]: Not Active
SMILES: NC(=O)c1cc(Cl)c2c(Cl)c(C3CC3)n(C3CCCNC3)c2n1 (racemic)
- IC50 (KG-1): 310 nM
- IC50 [23]: 2900 nM

- IC50 [1]: 6 nM
- IC50 [3]: 2 nM
- IC50 [4]: 47 nM
- AUC(0-inf) [28]: 15000 ng·h/mL
- half-life [29]: 2.3 h
- Vd [30]: 0.55 L/kg
- half-life [31]: 1.5 h
- Cmax [32]: 3500 ng/mL
- IC50 [2]: 1 nM
- clearance [33]: 6 mL/min/kg
- solubility thermodynamic [19]: 42 µM (≈ 18.4 µg/mL)
- hepatic extraction ratio at 5 µM [34]: 0.35
- bioavailability [38]: 54%
- Papp A→B at 5 µM [26]: 2.6 ×10⁻⁶ cm/s
SMILES: NC(=O)c1cc(Cl)c2c(Cl)c(I)n(C3CCCNC3)c2n1 (racemic)
- IC50 (KG-1): 85 nM

- IC50 [1]: 383 nM
- IC50 [3]: 45 nM
- IC50 [2]: 12 nM
SMILES: NC(=O)c1cc(Cl)c2c(Cl)c(I)n(CC3CCCN3)c2n1 (racemic)

- IC50 [1]: 89 nM
- IC50 [3]: 28 nM
- IC50 [2]: 8 nM
SMILES: NC(=O)c1cc(Cl)c2c(Cl)c(I)n(C3CCCC(O)C3)c2n1 (racemic)

- IC50 [1]: 660 nM
- IC50 [3]: 64 nM
- IC50 [2]: 32 nM
SMILES: NC(=O)c1cc(Cl)c2c(Cl)c(I)n(C3CCNC(=O)C3)c2n1 (racemic)

- IC50 [1]: 23 nM
- IC50 [3]: 1 nM
- IC50 [2]: 1 nM
SMILES: NC(=O)c1cc(Cl)c2c(Cl)c(I)n(CC3CCNC3)c2n1 (racemic)

- IC50 [1]: 10 nM
- IC50 [3]: 2 nM
- IC50 [2]: 1 nM
SMILES: NC(=O)c1cc(Cl)c2c(Cl)c(I)n(C3CCCC(N)C3)c2n1 (racemic)

SMILES: NC(=O)c1cc(Cl)c2c(Cl)c(C#CC3CC3)n(C3CCCNC3)c2n1 (racemic)
- IC50 [1]: 6 nM
- IC50 [4]: 75 nM
- AUC(0-inf) [28]: 2500 ng·h/mL
- half-life [29]: 3.3 h
- Vd [30]: 11 L/kg
- half-life [31]: 2.6 h
- CL (Mus musculus [39]): > 75%
- Cmax [32]: 958 ng/mL
- IC50 (KG-1): 167 nM
- IC50 [2]: 0.7 nM
- clearance [33]: 65 mL/min/kg
- solubility thermodynamic [19]: 13 µM (≈ 4.9 µg/mL)
- hepatic extraction ratio at 5 µM [34]: 0.21
- bioavailability [38]: 97%
- IC50 [23]: 1000 nM
- Papp A→B at 5 µM [26]: 3 ×10⁻⁶ cm/s

SMILES: NC(=O)c1cc(Cl)c2c(Cl)c(I)n(C3CN4CCC3CC4)c2n1 (racemic)
- IC50 [1]: 99 nM
- IC50 [3]: 27 nM
- IC50 [2]: 6 nM
